Source: patent US20230016551A1, “METHOD FOR ADMINISTRATION OF URSODEOXYCHOLIC ACID” (SHILPA MEDICARE LIMITED, priority 2020, published 2023)
Where “and” joins values, the source holds several entries; their conditions need not be identical. Equal entries are not always repeated.

How the values were obtained:
Type in all cases: in vivo, human
[1] = test system: patients with non-alcoholic fatty liver disease; assay: NAFLD patients: liver biopsy histology, histology activity index (HAI) score; design: scale not given here; conditions: individual patients 1-4
Excerpt: A. Histology Examination: Only four patients in each group has accepted to undergo the liver biopsy (LB) before and after the treatment with intravenous UDCA and oral UDCA.

[2] = test system: patients with non-alcoholic fatty liver disease; assay: NAFLD patients: BMI, liver parameters (GGT, AST, ALT) and liver ultrasound grade, intravenous vs oral UDCA; design: GGT / AST / ALT: unit not given here; conditions: n = 50; for Liver Ultrasound - G: echographic fatty liver grade 0-3; for BMI / ALT / AST / GGT: mean±SD
Method: Two groups of patients (each group consisting of 50 patients N=50 as disclosed in Table -1) with non-alcoholic fatty liver disease are taken and standardized with the diet of 1300 calories/day (30% proteins, 30% carbohydrates and 40% fat). The first group of patients was treated with 50 mg/kg/day UDCA orally for first two months (500 mg capsules swallowed after meals on average of 2-3 capsules after breakfast, 3-4 capsules after lunch and 3-4 capsules after dinner). The second group of patients was treated with intravenous schedule of UDCA at a dose of 3500 mg each other day (every 48 hours) for a total of 24 intravenous sessions. The lab examinations were performed at time T0 (beginning of the study) and time T1 (end of second month treatment). Each patient of the two groups was submitted to standard echo graphic classification as follows: • Grade 0: No fatty liver • Grade 1 (Mild): Mild diffuse increase in the echogenicity of liver parenchyma or increased hepatorenal contrast with normal diaphragm and intrahepatic vessel borders. • Grade 2 (Moderate): Moderate diffuse increase in the echogenicity of liver parenchyma and increased hepatorenal contrast with slight impairment of diaphragm and intrahepatic vessel borders. • Grade 3 (Severe): In addition to moderate steatosis there was no visualization of posterior portion of the right lobe of liver, intrahepatic vessel borders and diaphragm. Values were presented as mean± standard deviation for quantitative variable and percentages for categorical variables. The two groups were compared by student’s t-test for quantitative variable and chi-square for the categorical variables. Changes from baseline to 12 weeks were compared by paired t-test within each group. Wilcoxon test was used for rating variable comparison before and after treatment in each group.

[3] = test system: patients with non-alcoholic fatty liver disease; assay: NAFLD patients: gastrointestinal side effects, oral vs intravenous UDCA
Method: The first group of patients was treated with 50 mg/kg/day UDCA orally for first two months (500 mg capsules swallowed after meals on average of 2-3 capsules after breakfast, 3-4 capsules after lunch and 3-4 capsules after dinner). The second group of patients was treated with intravenous schedule of UDCA at a dose of 3500 mg each other day (every 48 hours) for a total of 24 intravenous sessions. The lab examinations were performed at time T0 (beginning of the study) and time T1 (end of second month treatment). Each patient of the two groups was submitted to standard echo graphic classification as follows: • Grade 0: No fatty liver • Grade 1 (Mild): Mild diffuse increase in the echogenicity of liver parenchyma or increased hepatorenal contrast with normal diaphragm and intrahepatic vessel borders. • Grade 2 (Moderate): Moderate diffuse increase in the echogenicity of liver parenchyma and increased hepatorenal contrast with slight impairment of diaphragm and intrahepatic vessel borders. • Grade 3 (Severe): In addition to moderate steatosis there was no visualization of posterior portion of the right lobe of liver, intrahepatic vessel borders and diaphragm.

[4] = test system: patients with non-alcoholic fatty liver disease; assay: NAFLD patients: liver elastography (stiffness, kPa)
Excerpt: B. Elastography in Liver: Ultrasound imaging plays a major role in the diagnosis, monitoring and therapeutic decisions of chronic liver diseases. It has many clinical indications: morphological examination of the liver parenchyma and assessment of the risk of chronic liver disease by investigating for signs of dysmorphism and/or portal hypertension; detecting and characterizing liver lesions; monitoring local treatments and assessment of treatment response. Different levels of fibrosis are assessed using a histological score. The most widely used is the METAVIR score, which incorporates five stages of fibrosis: • F0 (no fibrosis), • F1 (portal fibrosis without septa: minimal fibrosis), • F2 (portal fibrosis with a few septa: moderate fibrosis or clinically significant fibrosis), • F3 (septal fibrosis with many septa but no cirrhosis: severe fibrosis) and F4 (cirrhosis). Staging liver fibrosis in patients with chronic liver disease is essential for patient management as it allows: • 1) To identify the severity of the liver damage in order to decide whether or not to start treatment (chronic viral liver disease) to avoid progression to cirrhosis when the fibrosis becomes significant ( ≥F2); • 2) To assess the progression or regression of liver fibrosis during treatment; • 3) To institute specific monitoring to screen for and treat complications (HCC, Esophageal varices) in patients suffering from cirrhosis and even severe fibrosis ( ≥F3). Conventional ultrasound cannot differentiate accurately the different liver fibrosis stages. Existing tools to assess liver fibrosis include liver biopsy (LB), which is invasive, and other non-invasive methods. The main non-invasive method to assess liver fibrosis is based on a physical parameter that measures the tissue elasticity and is called Elastography. It can replace subjective palpation and is intended to image the mechanical properties of tissues and more particularly their stiffness. The Elastography methods are based on a common approach: measurement of deformation induced in a tissue by a force. This technique uses an external mechanical device or an internal acoustic radiation force (ARFI and SWE) to induce shear waves in the tissue to be explored. The diagnostic action mechanism is based on shear wave, which is generated by an external mechanical impulse and whose speed is measured by an ultrasound one-dimensional probe. The one-dimensional probe (3.5 MHz) is mounted along the axis of an electro-dynamic transducer (vibrator). In this way it is possible to define the liver stiffness by measuring the velocity of elastic shear waves in the liver parenchyma generated by the mechanical impulse. The propagation velocity is directly related to the stiffness of the medium, defined by the Young modulus. […] The elasticity is expressed in kPa (kilopascals) and is measured at depth ranging from 25 to 65 mm in a 1 x4 cm area: the assessed liver volume is therefore two hundred times greater than the volume examined in a liver biopsy (LB). The obtained values range from 2.5 kPa to 75 kPa. Mean liver elasticity in “normal” subject is 5.81±1.54 and 5.23±1.59 kPa respectively for men and women.

[5] = test system: patients with biliary colicky pain due to radiolucent gallstones; assay: Dissolution of gallbladder transparent stones and colicky pain, intravenous vs oral UDCA; conditions: for patients with gall stones dissolution by echographic evaluation: n = 10
Method: 20 patients were recruited aged 35 years to 65 years with sudden burst of biliary colicky pain due to radiolucent gallstones, diameter 0.3 to […] and altered liver enzymes. Some patients are also […] complaining of quite an intense pain with nausea and vomiting but without fever, negative inflammation markers (ESR, CRP) and slight leukocytosis, no rebound tenderness at the gallbladder manual exploration. […] were administered with 3500 mg of UDCA every 12 hours for 6 days from the cubital vein; the very first infusion at the admission was added with 20 mg hyoscine-N-butyl bromide and 75 mg diclofenac as the patients are distressed by excruciating pain.

[6] = intravenous, 3500 mg every 48 hours, 24 sessions, T0
[7] = intravenous, 3500 mg every 48 hours, 24 sessions, T1 (end of second month)
[8] = oral, 50 mg/kg/day for two months, T0
[9] = oral, 50 mg/kg/day for two months, T1 (end of second month)
[10] = oral, 50 mg/kg/day for two months
[11] = oral group, 0.7 g/kg oral UDCA for three months

SMILES: C[C@H](CCC(=O)O)[C@H]1CC[C@H]2[C@@H]3[C@@H](O)C[C@@H]4C[C@H](O)CC[C@]4(C)[C@H]3CC[C@]12C [UDCA, ursodeoxycholic acid]
- HAI score: Fibrosis ([1]; intravenous administration, T0): 3 (2×) and 4 (2×)
- HAI score: Intralobular ([1]; intravenous administration, T0): 0
- HAI score: Periportal +/- bridging ([1]; intravenous administration, T0): 3 and 2 and 1 (2×)
- HAI score: Portal inflammation ([1]; intravenous administration, T0): 3 (2×) and 2 (2×)
- HAI score: Fibrosis ([1]; intravenous administration, T1): 2 and 1 (3×)
- HAI score: Intralobular ([1]; intravenous administration, T1): 0
- HAI score: Periportal +/- bridging ([1]; intravenous administration, T1): 1 and 0 (3×)
- HAI score: Portal inflammation ([1]; intravenous administration, T1): 1 and 0 (2×) and 2
- HAI score: Fibrosis ([1]; oral administration, T0): 4 (3×) and 3
- HAI score: Intralobular ([1]; oral administration, T0): 0
- HAI score: Periportal +/- bridging ([1]; oral administration, T0): 1 (2×) and 3 and 2
- HAI score: Portal inflammation ([1]; oral administration, T0): 3 (2×) and 2 (2×)
- HAI score: Fibrosis ([1]; oral administration, T1): 3 (2×) and 2 (2×)
- HAI score: Intralobular ([1]; oral administration, T1): 0
- HAI score: Periportal +/- bridging ([1]; oral administration, T1): 1
- HAI score: Portal inflammation ([1]; oral administration, T1): 2 (3×) and 1
- Liver Ultrasound - G [2, 6]: 3±2
- Liver Ultrasound - G [2, 7]: 1±0
- Liver Ultrasound - G [2, 8]: 3±2
- Liver Ultrasound - G [2, 9]: 2±1
- BMI ([2]; intravenous, 3500 mg every 48 hours, 24 sessions, T0 (beginning of the study)): 29.06±4.6 kg/m^2
- ALT [2, 6]: 78.05±5.52
- AST [2, 6]: 65.54±4.56
- GGT [2, 6]: 19.52±5.82
- ALT [2, 7]: 52.6±5.65
- AST [2, 7]: 44.56±5.52
- BMI [2, 7]: 26.25±6.2 kg/m^2
- GGT [2, 7]: 16.77±7.76
- BMI ([2]; oral, 50 mg/kg/day for two months, T0 (beginning of the study)): 28.18±3.8 kg/m^2
- ALT [2, 8]: 76.48±4.95
- AST [2, 8]: 63.25±5.43
- GGT [2, 8]: 22.7±6.43
- ALT [2, 9]: 74.32±5.58
- AST [2, 9]: 59.43±3.39
- BMI [2, 9]: 27.67±4.2 kg/m^2
- GGT [2, 9]: 20.83±7.56
- local or systemic side effects during and after administration ([3]; intravenous, 3500 mg every 48 hours, 24 sessions): No local or systemic side effects were noted
- tolerability and compliance ([3]; intravenous, compared with the capsules to be swallowed): tolerated and preferred in terms of compliance
- bloating, share of the patients [3, 10]: 20%
- colicky pain as side effect [3, 10]: moderate colicky pain
- diarrhoea, share of the patients [3, 10]: 38%
- nausea, share of the patients [3, 10]: 15%
- reduced appetite, share of the patients [3, 10]: 10%
- liver stiffness by elastography (mean ± SD) ([4]; METAVIR score F ≥3, intravenous administration, T0): 20.2±5.7 kPa
- liver stiffness by elastography (mean ± SD) ([4]; METAVIR score F ≥3, intravenous administration, T1): 9.9±5.6 kPa
- liver stiffness by elastography (mean ± SD) ([4]; METAVIR score F ≥3, oral administration, T0): 19.9±7.1 kPa
- liver stiffness by elastography (mean ± SD) ([4]; METAVIR score F ≥3, oral administration, T1): 12.5±6.9 kPa
- liver stiffness by elastography (mean ± SD) ([4]; METAVIR score F ≥4, intravenous administration, T0): 25.3±6.5 kPa
- liver stiffness by elastography (mean ± SD) ([4]; METAVIR score F ≥4, intravenous administration, T1): 18.5±5.9 kPa
- liver stiffness by elastography (mean ± SD) ([4]; METAVIR score F ≥4, oral administration, T0): 23.6±6.8 kPa
- liver stiffness by elastography (mean ± SD) ([4]; METAVIR score F ≥4, oral administration, T1): 19.7±5.8 kPa
- adverse effects of parenteral treatment ([5]; intravenous 3500 mg every 12 hours for 6 days, 20 patients, first week): no adverse effects
- patients with gall stones dissolution by echographic evaluation ([5]; intravenous group, 3500 mg twice a week for 3 months): 7 patients
- average stones volume reduction ([5]; oral UDCA group, the remaining patients): less than 30%
- patients in whom colicky pain reappeared during the first 40 days [5, 11]: 4 patients out of 10
- patients with gall stones dissolution by echographic evaluation [5, 11]: 3 patients
- reduction of the sludging concretions and overall stones volume compared with pre-treatment imaging ([5]; parenteral group, the remaining 3 patients): more than 50%
